# Measured values published in patent publication US9328163B2, “Post-translationally modified neurotrophin antibodies” (INSTITUT PASTEUR, priority 2006, dated 2016).
# B1: TNM-treated NGF: NGF (Harlan) treated with 40-fold molar excess of tetranitromethane; nitrated at Tyr52 and Tyr79 (protein)
# chain: SSTHPVFHMGEFSVCDSVSVWVGDKTTATDIKGKEVTVLAEVNINNSVFRQYFFETKCRASNPVESGCRGIDSKHWNSYCTTTHTFVKALTTDEKQAAWRFIRIDTACVCVLSRKATR
# B2: NGF: nerve growth factor, commercially available murine NGF (Harlan), non-nitrated (protein, listed as Mus musculus)
# chain: B1 chain
# B3: NGF-ROA: control NGF treated with decomposed peroxynitrite (reverse order addition) (protein, UniProt P01139 122-241, looked up)
# Beta-nerve growth factor: SSTHPVFHMGEFSVCDSVSVWVGDKTTATDIKGKEVTVLAEVNINNSVFRQYFFETKCRASNPVESGCRGIDSKHWNSYCTTTHTFVKALTTDEKQAAWRFIRIDTACVCVLSRKATRRG
# modifications: Beta-nerve growth factor treated with decomposed peroxynitrite
# Columns and labels:
# motor neurons = assay: Purified motor neuron cultures, motor neuron survival by direct counting; type: cell-based, rat; conditions: for induction of motor neuron death: BSA 100 ng/mL, FGF-1 or FGF-2 10 ng/mL previously treated with peroxynitrite 1 mM
# Method: Media and sera were purchased from Gibco-Invitrogen. Motor neuron cultures were prepared from embryonic day 15 (E15) rat spinal cord by a combination of metrizamide gradient centrifugation and immunopanning with a monoclonal antibody directed against rat p 75^NTR (mouse mAb Ig192) as previously described. Motor neurons were plated at a density of 350 cells/cm^2 on 4 well multidishes (Nunclon) precoated with polyornithine-laminin. Cultures were maintained in Neurobasal™ medium supplemented with 2% horse serum, […] L-glutamate, 25 μM 2-mercaptoethanol, 0.5 mM L-glutamine, and 2% B-27 supplement (Gibco-Invitrogen). Motor neuron survival was maintained by the addition of GDNF (1 ng/mL; Sigma) to the culture media. Motor neuron death induced by trophic factor deprivation (NONE, without GDNF) was determined in all experiments as a control, and never was greater than 50%. Treatments with the different reagents were performed 3 hours after motor neuron plating. Motor neuron survival was assessed after 48 hours by direct counting of all cells displaying intact neurites longer than 4-cell bodies in diameter, in a prefixed area of the dish.
# (§1) Treatment with antisense oligonucleotides to down-regulate p75^NTR expression was performed as described previously. Briefly, HPLC-purified phosphorothioate antisense and missense oligonucleotides (5 μM; Integrated DNA Technologies) were added to the cell suspension of purified motor neurons and repeatedly pipetted before seeding. The oligonucleotides were present the whole time of culture. To determine the efficiency of uptake, cultures were incubated with p75^NTR antisense oligonucleotides with a 5′ 56-FAM fluorescent label. Cells were transferred to the heated stage (37° C.) of a Zeiss LSM510 confocal microscope with constant 5% CO2. Fluorescence was imaged with a 63× oil immersion objective. Uptake efficiency was >96% in all experiments. Sequences used were: p75^NTR antisense, 5′-ACCTGCCCTCCTCATTGCA-3′ (SEQ ID NO: 5) and p 75^NTR missense, 5′-CTCCCACTCGTCATTCGAC-3′ (SEQ ID NO: 6).
# NGF = assay: Tyrosine nitration and oligomerization of NGF by peroxynitrite (SDS-PAGE, Western blot anti-nitrotyrosine); type: biochemical, mouse; conditions: urate 20 to 1000 μM; peroxynitrite 1 mM
# Method: Peroxynitrite concentration was determined spectrophotometrically at 302 nm (ε=1,670 M^−1 cm^−1). Diluted stock solutions were freshly prepared in 0.01 M NaOH. The reactions of NGF (Harlan; Indianapolis, USA) with different concentrations of peroxynitrite (0.25 mM to 2 mM) was performed at a protein concentration of 0.2 mg/mL to 1.0 mg/mL obtaining similar results. The reaction was performed in 50 mM sodium phosphate buffer, pH 7.4, containing 20 mM sodium bicarbonate. NGF was subjected to 10 bolus addition of peroxynitrite (1 μL each) to reach the desired final concentration of peroxynitrite. One bolus of peroxynitrite stock solution was rapidly added on the top of the test tube and mixed by vortexing for 3 sec. The procedure was repeated 10 times. To exclude a potential non-specific effect of peroxynitrite treatment because of pH changes or contaminants, control experiments were performed using diluted NaOH or decomposed peroxynitrite (reverse order addition, ROA). Treatment of bovine serum albumin (Sigma), FGF-1 (Sigma) and FGF-2 (R&D Systems) with peroxynitrite was performed as described above at a concentration of 0.2 mg/mL.
# SDS-PAGE was performed in 15% polyacrylamide minigels under reducing conditions. Samples were boiled for 5 min in LaemLi buffer before running. Proteins were visualized by Coomassie Blue or Silver staining. […]
# [1] = test system: Dorsal root ganglia explants; assay: Neurite outgrowth from dorsal root ganglia explants (GAP-43 immunofluorescence); type: cell-based; conditions: 100 ng/mL; 24 hours; E15 rat embryo ganglia
# Method: Dorsal root ganglia explants from E15 rat embryos (that express both TrkA and p75^NTR) were cultured in Neurobasal media in the absence of trophic factors (NONE) or in the presence of NGF (100 ng/mL), NGF treated with peroxynitrite (100 ng/mL; nitroNGF-P) or NGF treated with tetranitromethane (nitroNGF-TNM). After 24 hours cultures were fixed with 4% paraformaldehyde and processed for immunofluorescence against GAP-43.
# purified motor neurons = assay: Uptake of fluorescently labelled antisense oligonucleotides (confocal microscopy); type: cell-based, rat; conditions: antisense oligonucleotides with 5′ 56-FAM fluorescent label; all experiments
# Method: as §1
# [2] = cultures maintained with GDNF (1 ng/mL), no exogenous nitric oxide, 48 h
molecule,measurement,setting,value
COC(=O)CC[C@H](NC(=O)[C@H](CC(=O)OC)NC(=O)OCc1ccccc1)C(=O)N[C@H](C(=O)N[C@@H](CC(=O)OC)C(=O)CF)C(C)C [DEVD-fmk],effect on motor neuron loss induced by peroxynitrite-treated NGF,"motor neurons; DEVD-fmk 10 μM added every 24 hours, NGF-ONOO^− 100 ng/mL, 48 h",blocked
Oc1nc(O)c2nc(O)[nH]c2n1 [urate],effect on motor neuron loss induced by peroxynitrite-treated NGF,"motor neurons; urate 100 nM added to culture, NGF-ONOO^− 100 ng/mL, 48 h",did not prevent motor neuron loss
same,effect on apoptotic activity of peroxynitrite-treated NGF,"motor neurons; urate 200 μM present during peroxynitrite (1 mM) treatment of NGF, NGF 100 ng/mL, 48 h",abolished the apoptotic effect
same,effect on tyrosine nitration and oligomerization of NGF,NGF,prevented tyrosine nitration and oligomerization of NGF in a dose dependent manner
COC(=O)[C@@H](N)CCCNC(=N)N[N+](=O)[O-] [L-NAME],effect on motor neuron loss induced by peroxynitrite-treated NGF,"motor neurons; L-NAME 1 mM, NGF-ONOO^− 100 ng/mL, 48 h",prevented
peroxynitrite treated-BSA: bovine serum albumin (Sigma) treated with peroxynitrite,induction of motor neuron death,motor neurons; 48 h,did not induce motor neuron death
"peroxynitrite-treated NGF: NGF (Harlan) treated with peroxynitrite; nitrated (Tyr52, Trp99), elutes as dimer, tetramer and octamer",peroxynitrite concentration at which NGF apoptotic activity reaches a plateau,"motor neurons; NGF 10 ng/mL previously treated with indicated peroxynitrite concentrations, 48 h",higher than 0.5 mM
same,motor neuron loss,"motor neurons; at 1 pg/mL in the presence of nitric oxide (DETA-NONOate 10 μM), 48 h",33%
same,concentration inducing motor neuron death (as low as),"motor neurons; cultures maintained with GDNF (1 ng/mL), no exogenous nitric oxide, survival 48 h after treatment",1 ng/mL
same,increase of potency to induce apoptosis of motor neurons,"motor neurons; in the presence of nitric oxide, versus NGF","10,000 fold"
same,apoptotic activity relative to unmodified native NGF,motor neurons; through p75^NTR,"10,000 fold"
same,concentration significantly inducing motor neuron loss,motor neurons; together with nitric oxide (NGF-ONOO^−+NO),1 pg/mL
same,neurite growth compared to NGF,[1],increased neurite growth
peroxynitrite treated-FGF-1: FGF-1 (Sigma) treated with peroxynitrite,induction of motor neuron death,motor neurons; 48 h,did not induce motor neuron death
same,induction of motor neuron death,"motor neurons; 48 h, listed as nitro-FGF-1",do not exert any apoptotic effect
"antisense: phosphorothioate p75^NTR antisense, 5′-ACCTGCCCTCCTCATTGCA-3′ (SEQ ID NO: 5) (DNA, all phosphorothioate, methylation of C not given here; further chemistry not fully specified)",effect on motor neuron apoptosis induced by native NGF in the presence of nitric oxide,"motor neurons; oligonucleotides 5 μM, NGF 100 ng/mL plus DETA-NONOate 10 μM, 48 h",blocked
same,effect on apoptosis induced by peroxynitrite-treated NGF,"motor neurons; oligonucleotides 5 μM, NGF-ONOO^− 100 ng/mL, 48 h",completely prevented
same,effect on loss of motor neurons induced by NGF-ONOO^− or NGF+NO,"motor neurons; oligonucleotides added at plating, NGF-ONOO^− 100 ng/mL or NGF 100 ng/mL plus DETA-NONOate 10 μM, 48 h",completely blocked the loss of motor neurons
same,uptake efficiency,purified motor neurons,> 96%
peroxynitrite treated-FGF-2: FGF-2 (R&D Systems) treated with peroxynitrite,induction of motor neuron death,motor neurons; 48 h,did not induce motor neuron death
same,induction of motor neuron death,"motor neurons; 48 h, listed as nitro-FGF-2",do not exert any apoptotic effect
O=C(O)c1ccc(/C2=C3\C=CC(=N3)/C(c3ccc(C(=O)O)cc3)=c3/cc/c4[n]3[Mn]([Cl])[n]3c2ccc3/C(c2ccc(C(=O)O)cc2)=C2/C=CC(=N2)\C=4c2ccc(C(=O)O)cc2)cc1 [MnTBAP],effect on motor neuron loss induced by peroxynitrite-treated NGF,"motor neurons; MnTBAP 100 μM, NGF-ONOO^− 100 ng/mL, 48 h",prevented
B1,motor neuron loss,"motor neurons; in the absence of nitric oxide, 48 h",32%
same,neurite growth compared to NGF,[1],increased neurite growth
B2,effect on motor neuron survival,motor neurons; [2],not sensitive
B3,effect on motor neuron survival,motor neurons; [2],did not affect motor neuron survival
same,concentration significantly inducing motor neuron loss,"motor neurons; in the presence of nitric oxide <50 nM from DETA-NONOate (10 μM), 48 h",higher than 10 ng/mL
